Values quoted from earlier work as cited in US6660296B2, “Sustained-release microgranules containing diltiazem as active principle” (Laboratories des Produits Ethiques Ethypharim, priority 1995, dated 2003).

Conditions: neutral or basic pH; Diltiazem or its pharmaceutically acceptable salts

For `COc1ccc([C@@H]2Sc3ccccc3N(CCN(C)C)C(=O)[C@@H]2OC(C)=O)cc1` [Diltiazem], the Solubility is given as “sparingly soluble”.
